Laboratory results as given in PubChem BioAssay AID2060495 (Molecular Pharmacology Branch, DTP, NCI, 2025).

Tested on: 521955-158-R2-J5-PDC complex spheroid viability
Assay: Anticancer human tumor 521955-158-R2-J5-PDC patient-derived pancreatic carcinoma cell line growth inhibition [GQUAD]
Conditions: for IC50: curve of first compound; for viability, T/C: stronger effect = lower value; active = viability on the fitted dose curve at most 10% of control; inactive = the rest
Method in brief: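 Multi-cell-type spheroids of tumor cells with HUVEC and mesenchymal stem cells, treated with drug combinations. Concentrations descend in half-log steps from near clinical Cmax, or from 10 microM where Cmax is unknown; viability read-out.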

[1] = second compound 0.0316 µM, first compound 0.0316 µM
[2] = second compound 0.0316 µM, first compound 0.1 µM
[3] = second compound 0.0316 µM, first compound 0.316 µM
[4] = second compound 0.0316 µM, first compound 1 µM
[5] = second compound 0.0316 µM, first compound 3.16 µM
[6] = second compound 0.0316 µM, first compound 10 µM
[7] = second compound 0.1 µM, first compound 0.0316 µM
[8] = second compound 0.1 µM, first compound 0.1 µM
[9] = second compound 0.1 µM, first compound 0.316 µM
[10] = second compound 0.1 µM, first compound 1 µM
[11] = second compound 0.1 µM, first compound 3.16 µM
[12] = second compound 0.1 µM, first compound 10 µM
[13] = second compound 0.316 µM, first compound 0.0316 µM
[14] = second compound 0.316 µM, first compound 0.1 µM
[15] = second compound 0.316 µM, first compound 0.316 µM
[16] = second compound 0.316 µM, first compound 1 µM
[17] = second compound 0.316 µM, first compound 3.16 µM
[18] = second compound 0.316 µM, first compound 10 µM
[19] = second compound 1 µM, first compound 0.0316 µM
[20] = second compound 1 µM, first compound 0.1 µM
[21] = second compound 1 µM, first compound 0.316 µM
[22] = second compound 1 µM, first compound 1 µM
[23] = second compound 1 µM, first compound 3.16 µM
[24] = second compound 1 µM, first compound 10 µM
[25] = second compound 3.16 µM, first compound 0.0316 µM
[26] = second compound 3.16 µM, first compound 0.1 µM
[27] = second compound 3.16 µM, first compound 0.316 µM
[28] = second compound 3.16 µM, first compound 1 µM
[29] = second compound 3.16 µM, first compound 3.16 µM
[30] = second compound 3.16 µM, first compound 10 µM
[31] = second compound 10 µM, first compound 0.0316 µM
[32] = second compound 10 µM, first compound 0.1 µM
[33] = second compound 10 µM, first compound 0.316 µM
[34] = second compound 10 µM, first compound 1 µM
[35] = second compound 10 µM, first compound 3.16 µM
[36] = second compound 10 µM, first compound 10 µM
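Note: spheroids exposed to agents for one week before reading.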
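Throughout, for viability, T/C: 100% = DMSO vehicle control viability.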

COc1cc(C2c3cc4c(cc3C(OC3OC5COC(C)OC5C(O)C3O)C3COC(=O)C23)OCO4)cc(OC)c1O (stereo not given) + Cc1[nH]c2ccc(F)cc2c1-c1nc2c3cccnc3c3ncccc3c2[nH]1
556 nM: IC50 (second compound 10 µM)
653 nM: IC50 (second compound 3.16 µM)
576 nM: IC50 (second compound 0.1 µM)
661 nM: IC50 (second compound 0.316 µM)
628 nM: IC50 (second compound 1 µM)
645 nM: IC50 (second compound 0.0316 µM)
inactive: viability, T/C [1] 99.5% | viability, T/C [2] 72.6% | viability, T/C [3] 73% | viability, T/C [4] 41% | viability, T/C [5] 14% | viability, T/C [7] 81% | viability, T/C [8] 102% | viability, T/C [9] 70.6% | viability, T/C [10] 29.8% | viability, T/C [11] 15.1% | viability, T/C [12] 10.7% | viability, T/C [13] 104% | viability, T/C [14] 94.9% | viability, T/C [15] 76.3% | viability, T/C [16] 34% | viability, T/C [17] 18.7% | viability, T/C [19] 84.2% | viability, T/C [20] 114% | viability, T/C [21] 82.2% | viability, T/C [22] 27.6% | viability, T/C [23] 15.4% | viability, T/C [24] 9.36% | viability, T/C [25] 74.8% | viability, T/C [26] 100% | viability, T/C [27] 73.1% | viability, T/C [28] 35.6% | viability, T/C [29] 14.7% | viability, T/C [30] 11.6% | viability, T/C [31] 96.3% | viability, T/C [32] 94% | viability, T/C [33] 66.8% | viability, T/C [34] 31.9% | viability, T/C [35] 17.1% | viability, T/C [36] 12.4%
active: viability, T/C [6] 9.66% | viability, T/C [18] 7.53%

O=C(NO)c1cnc(N2CCN(S(=O)(=O)c3ccc4ccccc4c3)CC2)nc1 + Cc1[nH]c2ccc(F)cc2c1-c1nc2c3cccnc3c3ncccc3c2[nH]1
1490 nM: IC50 (second compound 3.16 µM)
1380 nM: IC50 (second compound 1 µM)
1760 nM: IC50 (second compound 10 µM)
966 nM: IC50 (second compound 0.1 µM)
758 nM: IC50 (second compound 0.0316 µM)
inactive: viability, T/C [1] 115% | viability, T/C [2] 124% | viability, T/C [3] 84.3% | viability, T/C [4] 41.8% | viability, T/C [7] 99.1% | viability, T/C [8] 142% | viability, T/C [9] 111% | viability, T/C [10] 48.5% | viability, T/C [13] 100% | viability, T/C [14] 137% | viability, T/C [15] 113% | viability, T/C [16] 72.3% | viability, T/C [19] 101% | viability, T/C [20] 132% | viability, T/C [21] 120% | viability, T/C [22] 69.3% | viability, T/C [25] 96.8% | viability, T/C [26] 123% | viability, T/C [27] 105% | viability, T/C [28] 75.9% | viability, T/C [31] 99.1% | viability, T/C [32] 106% | viability, T/C [33] 101% | viability, T/C [34] 97.8%
1430 nM: IC50 (second compound 0.316 µM)
active: viability, T/C [5] 0.18% | viability, T/C [6] 0.17% | viability, T/C [11] 0.18% | viability, T/C [12] 0.23% | viability, T/C [17] 0.17% | viability, T/C [18] 0.17% | viability, T/C [23] 0.29% | viability, T/C [24] 0.13% | viability, T/C [29] 0.29% | viability, T/C [30] 0.48% | viability, T/C [35] 0.55% | viability, T/C [36] 0.36%

CC1COCCN1c1cc(C2(S(C)(=N)=O)CC2)nc(-c2ccnc3[nH]ccc23)n1 (stereo not given) + Cc1[nH]c2ccc(F)cc2c1-c1nc2c3cccnc3c3ncccc3c2[nH]1
736 nM: IC50 (second compound 0.316 µM)
806 nM: IC50 (second compound 3.16 µM)
724 nM: IC50 (second compound 10 µM)
698 nM: IC50 (second compound 0.0316 µM)
inactive: viability, T/C [1] 113% | viability, T/C [2] 103% | viability, T/C [3] 114% | viability, T/C [4] 22.6% | viability, T/C [5] 10.1% | viability, T/C [6] 11.7% | viability, T/C [7] 96.6% | viability, T/C [8] 109% | viability, T/C [9] 111% | viability, T/C [10] 35.9% | viability, T/C [13] 108% | viability, T/C [14] 91.7% | viability, T/C [15] 101% | viability, T/C [16] 31.7% | viability, T/C [19] 93.2% | viability, T/C [20] 104% | viability, T/C [21] 117% | viability, T/C [22] 27.1% | viability, T/C [23] 11.5% | viability, T/C [24] 11.7% | viability, T/C [25] 85.2% | viability, T/C [26] 105% | viability, T/C [27] 99.1% | viability, T/C [28] 39.3% | viability, T/C [29] 13.7% | viability, T/C [30] 8.99% | viability, T/C [31] 109% | viability, T/C [32] 105% | viability, T/C [33] 110% | viability, T/C [34] 27.4% | viability, T/C [35] 14.7% | viability, T/C [36] 10.9%
active: viability, T/C [11] 8.56% | viability, T/C [12] 8.84% | viability, T/C [17] 9.15% | viability, T/C [18] 10.3%
712 nM: IC50 (second compound 1 µM)
793 nM: IC50 (second compound 0.1 µM)

Nc1ccn(C2OC(CO)C(O)C2(F)F)c(=O)n1 (stereo not given) + Cc1[nH]c2ccc(F)cc2c1-c1nc2c3cccnc3c3ncccc3c2[nH]1
449 nM: IC50 (second compound 1 µM)
467 nM: IC50 (second compound 10 µM)
436 nM: IC50 (second compound 0.316 µM)
424 nM: IC50 (second compound 0.1 µM)
485 nM: IC50 (second compound 3.16 µM)
421 nM: IC50 (second compound 0.0316 µM)
inactive: viability, T/C [1] 78.3% | viability, T/C [2] 83.1% | viability, T/C [3] 61.9% | viability, T/C [4] 13.8% | viability, T/C [7] 77.1% | viability, T/C [8] 79.2% | viability, T/C [9] 58.9% | viability, T/C [10] 22.3% | viability, T/C [13] 89% | viability, T/C [14] 75.3% | viability, T/C [15] 64.1% | viability, T/C [16] 15% | viability, T/C [19] 88.9% | viability, T/C [20] 80.4% | viability, T/C [21] 61.6% | viability, T/C [22] 25.1% | viability, T/C [23] 9.92% | viability, T/C [25] 92.8% | viability, T/C [26] 93.3% | viability, T/C [27] 66.4% | viability, T/C [28] 21.8% | viability, T/C [29] 12.9% | viability, T/C [30] 10.2% | viability, T/C [31] 109% | viability, T/C [32] 104% | viability, T/C [33] 61.7% | viability, T/C [34] 25.3% | viability, T/C [35] 8.99%
active: viability, T/C [5] 10.5% | viability, T/C [6] 7.49% | viability, T/C [11] 10.8% | viability, T/C [12] 6.82% | viability, T/C [17] 10.6% | viability, T/C [18] 7.06% | viability, T/C [24] 7.24% | viability, T/C [36] 7.65%

O=C(NO)c1cnc(N2CCN(S(=O)(=O)c3ccc4ccccc4c3)CC2)nc1 + CN(C)c1ccc(Nc2c3ccc(NC(=O)CCN4CCCC4)cc3nc3cc(NC(=O)CCN4CCCC4)ccc23)cc1
668 nM: IC50 (second compound 0.1 µM)
491 nM: IC50 (second compound 0.316 µM)
734 nM: IC50 (second compound 3.16 µM)
active: viability, T/C [5] 0.19% | viability, T/C [6] 0.15% | viability, T/C [11] 0.16% | viability, T/C [12] 0.1% | viability, T/C [17] 0.13% | viability, T/C [18] 0.12% | viability, T/C [23] 0.15% | viability, T/C [24] 0.12% | viability, T/C [29] 0.28% | viability, T/C [30] 0.13% | viability, T/C [35] 0.27% | viability, T/C [36] 0.21%
550 nM: IC50 (second compound 1 µM)
inactive: viability, T/C [1] 127% | viability, T/C [2] 105% | viability, T/C [3] 95.3% | viability, T/C [4] 30.6% | viability, T/C [7] 120% | viability, T/C [8] 124% | viability, T/C [9] 94.7% | viability, T/C [10] 26% | viability, T/C [13] 118% | viability, T/C [14] 115% | viability, T/C [15] 58% | viability, T/C [16] 31.6% | viability, T/C [19] 121% | viability, T/C [20] 116% | viability, T/C [21] 60.9% | viability, T/C [22] 37% | viability, T/C [25] 109% | viability, T/C [26] 142% | viability, T/C [27] 87.5% | viability, T/C [28] 37.7% | viability, T/C [31] 94% | viability, T/C [32] 94.1% | viability, T/C [33] 53.7% | viability, T/C [34] 17.1%
376 nM: IC50 (second compound 10 µM)
703 nM: IC50 (second compound 0.0316 µM)
